{"source": "patent US12234482B2", "about": "“Culture medium for expanding and culturing human liver progenitor cells and application thereof” (Guangzhou Institutes of Biomedicine and Health, Chinese …, priority 2019, dated 2025)", "key": {"HBs [1]": {"system": "HBs", "assay": "Effects of signaling pathways regulated by small molecules on characteristics of HBs (AFP expression)", "format": "cell-based, human", "details": "FIG. 2D", "source_text": "In addition to proliferation, the effects of the related signaling pathways on the characteristics of HBs were further analyzed."}, "HBs [2]": {"system": "HBs", "assay": "Effects of signaling pathways regulated by small molecules on proliferation of HBs", "format": "cell-based, human", "details": "small molecule regulating a signaling pathway; FIGS. 2B and 2C", "protocol": "Further, effects of the signaling pathways on the proliferation and differentiation of HBs were analyzed by regulating the related signaling pathways with small molecules."}}}
{"compound": "Cc1cccc(-c2nn(C(=S)Nc3ccccc3)cc2-c2ccnc3ccccc23)n1", "note": "[A8301]", "values": [{"measurement": "expression of AFP / maintenance of the characteristics of HBs", "setting": "HBs [1]", "value": "promoted the expression of liver cell-related genes such as AFP"}, {"measurement": "proliferation of HBs", "setting": "HBs [2]", "value": "promoted the proliferation of HBs"}]}
{"compound": "Cc1c[nH]c(-c2cnc(NCCNc3ccc(C#N)cn3)nc2-c2ccc(Cl)cc2Cl)n1", "note": "[CHIR, CHIR99021]", "values": [{"measurement": "expression of AFP / maintenance of the characteristics of HBs", "setting": "HBs [1]", "value": "inhibited the expression of AFP"}, {"measurement": "proliferation of HBs", "setting": "HBs [2]", "value": "promoted the proliferation of HBs"}]}
{"compound": "CNC1CCC(N(Cc2cccc(-c3ccncc3)c2)C(=O)c2sc3ccccc3c2Cl)CC1", "note": "(stereo not drawn) [SAG]", "values": [{"measurement": "expression of AFP / maintenance of the characteristics of HBs", "setting": "HBs [1]", "value": "promoted the expression of liver cell-related genes such as AFP"}, {"measurement": "proliferation of HBs", "setting": "HBs [2]", "value": "promoted the proliferation of HBs"}]}
